Laboratory results published in patent US7674819B2 (Warner-Lambert Company LLC, priority 2005, dated 2010).
Numbering of substitutions follows the chain as printed. pIC50: −log10 of the molar value. Where two headings read alike, the source gives them in different places.

Tests used:
androgen receptor = biological target: T1, androgen receptor (Homo sapiens, UniProt P10275); assay: AR Antagonist Cell Assay (MDA-MB453-MMTV clone 54-19, luciferase reporter); format: cell-based; details: inhibition of induction by DHT (final concentration at 100 μM), 17 hr, compound 0.32-1000 nM, mean of multiple tests
T1 sequence (P10275 1-920 Q868H): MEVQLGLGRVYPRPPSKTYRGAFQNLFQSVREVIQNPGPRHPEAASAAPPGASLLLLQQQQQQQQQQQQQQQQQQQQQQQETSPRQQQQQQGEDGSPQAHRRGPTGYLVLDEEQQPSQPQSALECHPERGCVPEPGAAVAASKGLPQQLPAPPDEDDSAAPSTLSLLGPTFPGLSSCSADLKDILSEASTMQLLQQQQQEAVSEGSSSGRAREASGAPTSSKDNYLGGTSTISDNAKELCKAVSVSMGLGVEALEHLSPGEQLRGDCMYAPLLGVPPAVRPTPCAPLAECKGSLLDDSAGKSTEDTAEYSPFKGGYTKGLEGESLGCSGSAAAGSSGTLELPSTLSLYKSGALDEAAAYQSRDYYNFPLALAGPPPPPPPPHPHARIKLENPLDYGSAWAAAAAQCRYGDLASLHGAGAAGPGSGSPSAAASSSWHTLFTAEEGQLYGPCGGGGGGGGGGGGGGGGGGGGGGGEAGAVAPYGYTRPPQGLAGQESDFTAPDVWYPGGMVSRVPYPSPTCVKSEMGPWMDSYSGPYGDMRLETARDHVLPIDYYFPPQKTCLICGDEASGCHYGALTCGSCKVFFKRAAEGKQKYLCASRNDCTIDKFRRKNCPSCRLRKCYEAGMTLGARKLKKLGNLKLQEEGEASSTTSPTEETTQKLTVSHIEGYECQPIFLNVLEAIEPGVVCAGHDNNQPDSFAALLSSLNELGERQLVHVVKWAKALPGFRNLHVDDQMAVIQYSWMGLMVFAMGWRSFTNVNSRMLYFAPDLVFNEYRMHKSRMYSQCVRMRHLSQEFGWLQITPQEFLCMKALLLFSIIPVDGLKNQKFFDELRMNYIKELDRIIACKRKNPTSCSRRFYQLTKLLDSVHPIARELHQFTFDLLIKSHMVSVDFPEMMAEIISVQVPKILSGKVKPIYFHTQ
In short: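 MDA-MB453 breast tumour cells stably carrying an ARE-containing MMTV promoter driving firefly luciferase, plated overnight at 37° C in charcoal-treated serum medium. DHT added (final […]) and incubated 17 hr at 37° C. Luminescence read after adding luciferase buffer; values are means of multiple tests.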

hAR = biological target: T2, hAR (Homo sapiens, UniProt P10275); assay: Competitive binding of 3H-DHT to baculovirus/Sf9 generated hAR extracts; details: one hour at 4° C., mean of multiple tests
T2 sequence (P10275 1-920): T1 sequence (P10275 1-920 Q868H) with H868Q
In short: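 Baculovirus/Sf9-expressed hAR extract incubated with test compound, hydroxylapatite and 1 nM 3H-DHT tracer for 1 h at 4° C, then washed free of unbound tracer. Affinity given as concentration inhibiting half of maximal 3H-DHT binding.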

spinal BMD = details: after 7 years of treatment; cited from earlier work
[1] = IC50, concentration at which one half of maximum binding of 1 nM 3H-DHT to hAR is inhibited

SMILES | melting point | pIC50 (androgen receptor) | pIC50 (hAR; [1]) | pIC50 (androgen receptor; read-out: IC50) | pIC50 (hAR; concentration at which one half of maximum binding of 1 nM 3H-DHT to hAR is inhibited, read-out: IC50) | increase in spinal BMD (spinal BMD)
C[C@@H](c1ccc(F)cc1)N1CC(C)(C)[C@@H](Oc2ccc(C#N)c(C(F)(F)F)c2)C1=O (mixture of isomers) [Example 71, (±)-4-{1-[1-(4-Fluoro-phenyl)-ethyl]-4,4-dimethyl-2-oxo-pyrrolidin-3-yloxy}-2-trifluoromethyl-benzonitrile] | 114 to 115 °C | – | – | – | – | –
CSc1ccc(CN2CC(C)(C)C(Oc3ccc(C#N)c(C(F)(F)F)c3)C2=O)cc1 (racemic) [Example 22, (±)-4-[4,4-Dimethyl-1-(4-methylsulfanyl-benzyl)-2-oxo-pyrrolidin-3-yloxy]-2-trifluoromethyl-benzonitrile] | 44.1 to 44.8 °C | 7.00 | 7.40 | – | – | –
C[C@@H](c1ccc(F)cc1)N1CC(C)(C)[C@@H](Oc2ccc(C#N)c(C(F)(F)F)c2)C1=O (racemic) [Example 70, (±)-4-{1-[1-(4-Fluoro-phenyl)-ethyl]-4,4-dimethyl-2-oxo-pyrrolidin-3-yloxy}-2-trifluoromethyl-benzonitrile] | 82 to 83 °C | 7.07 | 7.28 | – | – | –
CC(c1cccc(O)c1)N1CC(C)(C)C(Oc2ccc(C#N)c(C(F)(F)F)c2)C1=O (single isomer, unassigned; (+)) [Example 24, (+)-4-{1-[1-(3-Hydroxy-phenyl)-ethyl]-4,4-dimethyl-2-oxo-pyrrolidin-3-yloxy}-2-trifluoromethyl-benzonitrile] | 185.1 to 185.8 °C | 7.48 | 8.00 | – | – | –
CC1(C)CN(Cc2nnc(-c3ccc(O)cc3O)o2)C(=O)C1Oc1ccc(C#N)c(C(F)(F)F)c1 (centres unmarked) [Example 123, 4-{1-[5-(2,4-Dihydroxy-phenyl)-[1,3,4]oxadiazol-2-ylmethyl]-4,4-dimethyl-2-oxo-pyrrolidin-3-yloxy}-2-trifluoromethyl-benzonitrile] | – | – | 7.21 | 6.75 | – | –
CC1(C)CN(Cc2nnc(-c3ccccc3Cl)o2)C(=O)C1Oc1ccc(C#N)c(C(F)(F)F)c1 (centres unmarked) [Example 127, 4-{1-(5-(2-Chloro-phenyl)-[1,3,4]oxadiazol-2-ylmethyl]-4,4-dimethyl-2-oxo-pyrrolidin-3-yloxy}-2-trifluoromethyl-benzonitrile] | – | – | – | < 6.00 | 6.70 | –
CC(c1nnc(-c2ccccc2O)o1)N1CC(C)(C)C(Oc2ccc(C#N)c(C(F)(F)F)c2)C1=O (centres unmarked) [Example 130, 4-(1-{1-[5-(2-hydroxy-phenyl)-[1,3,4]oxadiazol-2-yl]-ethyl}-4,4-dimethyl-2-oxo-pyrrolidin-3-yloxy)-2-trifluoromethyl-benzonitrile] | – | – | 7.07 | 6.70 | – | –
NCCCC(O)(P(=O)(O)O)P(=O)(O)O [alendronate] | – | – | – | – | – | ≤ 11%
